Our source for the melting point values is a melting point compilation (Tetko et al.).

The melting point is the temperature of the solid-liquid transition.

SMILES strings stand for the structures.

`O=S(=O)(Cl)c1scc(Br)c1Br`: the melting point is 111 to 113 °C.

Turning to `O=C1CC(C(=O)O)CN1` (centres undefined), the melting point is 129 to 131 °C.

`NN=C(Nc1ccccc1)c1cc(F)cc(F)c1` came in with a melting point of 99 to 101 °C.

For `CCN(CC)C(=O)COc1ccc(C(C)=O)cc1`, the melting point was in the range of 61 to 63 °C.

`Cc1[nH]nc2ncc(C(=O)O)cc12` returned a melting point of 337 to 339 °C.

For `Nc1ccc(NC(=O)C2CC2)cc1C(F)(F)F`, the melting point fell in the range of 145 to 147 °C.

In turn, `O=C(O)CCc1ccc2c(c1)CCO2` gave a melting point of 92 to 94 °C.

As to `COc1ccc(Br)cc1C(=O)O`, the melting point is 112 to 114 °C.

With `N#Cc1cccc(OCc2ccoc2C(=O)O)c1`, the melting point is 177 to 179 °C.

On to `O=C(O)c1ccc(CS)c(F)c1`, for which the melting point lay in the range of 136 to 138 °C.

Regarding `O=C(O)Cn1c(-c2cccc(Cl)c2Cl)nc2ccccc21`, the melting point was in the range of 235 to 237 °C.

As to `CCC(c1ccccc1)c1nnc(N)o1` (centres undefined), the melting point lay within 197 to 199 °C.

As for `Cc1ccc(C(=O)Nc2cccc(C=O)c2)cc1`, the melting point is 130 to 132 °C.

With `Nc1ncn(Cc2cccnc2)n1`, the melting point lay within 112 to 114 °C.

The compound `O=C(O)c1ccc(-c2noc(-c3ccc(F)cc3)n2)cc1` returned a melting point of 291 to 293 °C.

`CCN(CC)S(=O)(=O)c1cc(NC(=O)CCl)ccc1C` came in with a melting point of 70 to 72 °C.

On to `CC(=O)c1ccc(OC(C)C)cc1`, for which the melting point is 42 to 44 °C.

`Nc1cc(C(=O)N2CCCCC2)ccc1Cl`: the melting point lay in the range of 135 to 137 °C.

For the compound `Cc1cccc(C2(C(=O)O)CCCCC2)c1`, the melting point was in the range of 141 to 143 °C.

On to `ON=C1CCN(Cc2ccccn2)CC1`, for which the melting point was in the range of 61 to 63 °C.

With `CCOC(=O)c1cnc(N2CCNCC2)s1`, the melting point was 73 to 75 °C.

`NNC(=O)CSc1ccccc1O` gave a melting point of 134 to 136 °C.

For the compound `COc1cc2ncc(Cl)nc2cc1OC`, the melting point lay within 149 to 151 °C.

With `NC(=O)Cn1c(S)nnc1-c1ccco1`, the melting point was in the range of 313 to 315 °C.

As to `O=[N+]([O-])c1ccc(Cl)cc1I`, the melting point is 62 to 64 °C.

Compound `C=C(C)CNC(=S)NN` yielded a melting point of 86 to 88 °C.

Regarding `Cc1cccc(Cc2cnc(N)s2)c1`, the melting point lay in the range of 100 to 102 °C.

`NC(=O)CCS(=O)(=O)CCCl` yielded a melting point of 139 to 141 °C.

In turn, `Cc1cc(S(=O)(=O)Cl)ccc1OCCCC(=O)O` registered a melting point of 135 to 137 °C.

With `O=Cc1cc(C(=O)O)co1`, the melting point lay in the range of 165 to 167 °C.

`CC1CCCN1CC(=O)O` (centres undefined) registered a melting point of 167 to 169 °C.

Regarding `O=C(O)c1nc(NCCc2ccccc2)ncc1Cl`, the melting point is 158 to 160 °C.

Regarding `O=C(O)CN(Cc1ccccc1)S(=O)(=O)c1ccc(Cl)cc1`, the melting point was 149 to 151 °C.

Compound `COc1ccc(C(=O)NCC(=O)O)cc1[N+](=O)[O-]` came in with a melting point of 98 to 100 °C.

The compound `Nc1nc(CCl)nc2sc3c(c12)CCCC3` showed a melting point of 174 to 176 °C.

In turn, `O=C1CCCOc2c1ccc(Cl)c2Cl` had a melting point of 103 to 105 °C.

`O=Cc1cnn(-c2ccc(F)cc2)c1` registered a melting point of 120 to 122 °C.

With `O=c1[nH]nc(-c2ccc(Cl)c(Cl)c2)c2ccccc12`, the melting point fell in the range of 274 to 276 °C.

For `O=C(O)c1c(F)cccc1Br`, the melting point was 153 to 155 °C.

As to `Cc1cc(Cl)c([N+](=O)[O-])cc1S(=O)(=O)Cl`, the melting point fell in the range of 116 to 118 °C.

As to `Cc1cc(C=O)c(C)n1-c1ccc(Cl)cc1`, the melting point is 123 to 125 °C.

Turning to `COc1ccc(NC#N)cc1Cl`, the melting point fell in the range of 95 to 97 °C.

Regarding `COc1ccccc1CN1C(=O)C=CC1=O`, the melting point was 93 to 95 °C.

Compound `CC(C)(C)OC(=O)N1C(C(=O)O)CC2CCCCC21` (centres undefined) yielded a melting point of 133 to 135 °C.

Compound `CC(C)(O)COc1ccc(N)cc1` showed a melting point of 55 to 57 °C.

The compound `CC(C)(C)OC(=O)N1CCc2[nH]c(=O)c(C#N)cc2C1` showed a melting point of 239 to 241 °C.

The compound `Nc1ccc(F)c(N2CCS(=O)(=O)CC2)c1` had a melting point of 181 to 183 °C.

`O=C(O)CNC(=O)NCc1ccco1` registered a melting point of 159 to 161 °C.

On to `O=C(O)CN1C(=O)COc2ccc([N+](=O)[O-])cc21`, for which the melting point was 200 to 202 °C.

`O=C(O)CCN1C(=O)C(=Cc2ccc(F)cc2)SC1=S` showed a melting point of 135 to 137 °C.

`CCCN1C(=O)C(=O)c2cc(Br)ccc21` displayed a melting point of 129 to 131 °C.

As to `CC(C)(C)OC(=O)NC(CN)c1ccccc1` (centres undefined), the melting point is 65 to 67 °C.

In the case of `Cc1nc(C)n(Cc2cccc(N)c2)n1`, the melting point lay within 109 to 111 °C.

`N#Cc1ccccc1OCc1cccc(C(=O)O)c1`: the melting point lay within 153 to 155 °C.

Turning to `COc1nc2cc(N)ccc2o1`, the melting point is 123 to 125 °C.

Consider `Nc1cc2c(cc1Cl)OCO2`, for which the melting point fell in the range of 90 to 92 °C.

Compound `COc1cc(Cl)c(Cl)cc1C(=O)O` yielded a melting point of 148 to 150 °C.

In the case of `Cc1ccc(C(=O)N(C)c2ccc(O)cc2)cc1`, the melting point is 115 to 117 °C.

In the case of `O=C(CC(=O)NCc1ccccc1)NCc1ccccc1`, the melting point was 119 to 121 °C.

`CCc1ccc(-c2ccc(C(=O)O)o2)cc1` registered a melting point of 170 to 172 °C.

For `O=C(O)C1CCS(=O)(=O)CC1`, the melting point was in the range of 184 to 186 °C.

Turning to `O=C(O)c1c[nH]cc1-c1ccc2c(c1)OCCO2`, the melting point lay in the range of 196 to 198 °C.

In turn, `Sc1nnc(-c2ccccc2)n1-c1ccccc1` returned a melting point of 292 to 294 °C.

As to `Nc1nc2c(s1)COc1ccccc1-2`, the melting point is 190 to 192 °C.

`C=CC(=O)NC(=O)Nc1ccccc1` showed a melting point of 149 to 151 °C.

With `Cc1[nH]cnc1CO`, the melting point was 233 to 235 °C.

`O=c1[nH]nc(-c2ccccc2)cc1C(F)(F)F` had a melting point of 184 to 186 °C.

The compound `CS(=O)(=O)c1cccc(C(=O)c2ccc(F)cc2)c1` came in with a melting point of 66 to 68 °C.

On to `NCc1ccc(N2CC=CC2)cc1`, for which the melting point fell in the range of 74 to 76 °C.

`CNS(=O)(=O)c1ccc(-c2cccs2)c(C(=O)O)c1` displayed a melting point of 164 to 166 °C.

For `CCC(N)=S`, the melting point fell in the range of 40 to 42 °C.

Consider `Cc1ccc(-c2nc(N)sc2-c2ccc(C)cc2)cc1`, for which the melting point fell in the range of 153 to 155 °C.

`COC(=O)Nc1snc(C)c1C(=O)O` yielded a melting point of 215 to 217 °C.

Regarding `CC(C)c1cc(N)no1`, the melting point was in the range of 64 to 66 °C.

Consider `Nc1cc(C2CCCCC2)no1`, for which the melting point lay within 127 to 129 °C.

On to `COC(=O)C1(O)CCN(Cc2ccccc2)CC1`, for which the melting point lay in the range of 75 to 77 °C.

The compound `CC(=O)NC1CNc2ccccc2C1` (centres undefined) registered a melting point of 124 to 126 °C.

As to `CN(C)CCCNS(=O)(=O)c1ccc(Cl)c([N+](=O)[O-])c1`, the melting point is 98 to 100 °C.

In turn, `Nc1cccc(-c2c3c(=O)[nH][nH]c(=O)c3c3n2CCC3)c1` came in with a melting point of 331 to 333 °C.

As for `COCC(=O)Nc1cccc(N)c1`, the melting point fell in the range of 82 to 84 °C.

`Cc1cc(C=O)c(C)n1-c1ccc2c(c1)OCCO2`: the melting point was in the range of 112 to 114 °C.

Regarding `CCOC(=O)c1c(CCCO)cnc2cc(C)nn12`, the melting point fell in the range of 76 to 78 °C.

For the compound `CC(=O)c1sc2nc(C)cc(C)c2c1N`, the melting point lay within 174 to 176 °C.

`O=C(O)c1c(C(F)(F)F)nn(-c2ccccc2)c1C(F)(F)F` had a melting point of 156 to 158 °C.

In the case of `CCN(CC)S(=O)(=O)c1ccc(OC(C)C)c(NC(=O)CCl)c1`, the melting point is 223 to 226 °C.

`O=C(O)c1nn(-c2ccccc2)cc1CCCO` showed a melting point of 119 to 121 °C.

As for `COc1cc(C(=O)O)cc(OC)c1OCc1ccccc1`, the melting point was 155 to 159 °C.

For the compound `Cc1ccc(Oc2ccc3[nH]cccc-3c2=N)c(Br)c1`, the melting point was 259 to 261 °C.

For `CN1CCN(S(=O)(=O)c2ccc3c(c2)CCN3)CC1`, the melting point is 176 to 178 °C.

In the case of `Cc1ccc(C2CCCCC2O)cc1` (centres undefined), the melting point lay within 72 to 74 °C.

Compound `O=C(O)c1cc(-c2cccs2)n(-c2ccccc2)n1` yielded a melting point of 193 to 195 °C.

On to `O=C(O)C1(Br)CCCC1`, for which the melting point was 66 to 68 °C.

`CC1CC(C)CN(S(=O)(=O)c2ccc(N)cc2)C1` (centres undefined) registered a melting point of 157 to 159 °C.

For `C=CC(=O)NCc1ccc(C(=O)O)cc1`, the melting point lay within 197 to 199 °C.

Regarding `O=C(O)c1ccc(SC2CC2)cc1`, the melting point is 156 to 158 °C.

Compound `Cc1nc2ccccn2c1C(=O)NN` registered a melting point of 188 to 190 °C.

On to `CC(C)(C)OC(=O)N1CCN(c2ncccc2C#N)CC1`, for which the melting point was 65 to 67 °C.

The compound `N#Cc1cccc(C(F)(F)F)n1` registered a melting point of 36 to 38 °C.

As for `O=C(CCl)NCc1cn(Cc2ccccc2)nc1-c1ccccc1`, the melting point fell in the range of 82 to 84 °C.

Compound `NC(=O)c1c(NC(=O)CCC(=O)O)sc2c1CCC2` yielded a melting point of 231 to 233 °C.

For `Nc1cncc(Cl)c1Cl`, the melting point was 97 to 99 °C.

Consider `COc1ccc(-c2cc(C(=O)O)no2)c(F)c1`, for which the melting point fell in the range of 194 to 196 °C.

As to `Cn1c(=O)c2sccc2n2c(CCl)nnc12`, the melting point lay within 244 to 246 °C.

Compound `O=C(O)c1cc[nH]c1` displayed a melting point of 129 to 131 °C.

The compound `NS(=O)(=O)Cc1cccc(C(=O)O)c1` displayed a melting point of 234 to 236 °C.

`COc1ccc(-c2csc3nc(C)[nH]c(=O)c23)cc1OC` had a melting point of 249 to 251 °C.

`NCC(=O)Nc1ccccc1[N+](=O)[O-]` displayed a melting point of 81 to 83 °C.

With `O=C(NCCO)c1ccc(O)cc1O`, the melting point fell in the range of 163 to 165 °C.

`COc1ccccc1-c1nn(C)cc1C(=O)O` returned a melting point of 203 to 205 °C.

`O=C(Nc1cccc(Cl)c1)OCC(F)(F)F` gave a melting point of 35 to 37 °C.

For `Nc1c(NCCCO)c(=O)[nH]c(=O)n1Cc1ccccc1`, the melting point lay in the range of 155 to 157 °C.

`O=C(O)CNC(=O)C1CCOCC1` returned a melting point of 166 to 168 °C.

Compound `O=C(O)CSc1nnc(NC2CCCCC2)s1` registered a melting point of 157 to 159 °C.

`Nc1ccc(S(=O)(=O)N2CCCC2)cc1` registered a melting point of 164 to 166 °C.

Consider `O=[N+]([O-])c1cc(F)ccc1S(=O)(=O)Cl`, for which the melting point was 40 to 44 °C.

`Cc1cc(C(=O)O)c(N)s1`: the melting point fell in the range of 126 to 128 °C.

In turn, `Nc1nnc(Cl)s1` showed a melting point of 179 to 181 °C.

Regarding `O=c1cc(-c2ccccc2)c2cc(Cl)ccc2[nH]1`, the melting point lay within 257 to 259 °C.

Take `O=C1NC(=O)C(Cc2ccccc2)(Cc2ccccc2)N1`: the melting point fell in the range of 318 to 320 °C.
